Experimental data: patent US20060229358A1, “Pharmaceutical composition containing flavonoids” (Taipei Medical University, priority 2005, published 2006)

What follows are compounds tested on PDE1 (assay: Inhibition of cyclic nucleotide PDE activity (Assay I), PDE1). Conditions: mean ± S.E.M. (n); read-out: IC50 on phosphodiesterase isozyme 1.
Format: biochemical, guinea pig
Experimental: Under a protocol approved by the Animal Care and Use Committee of Taipei Medical University, five male guinea pigs (Hartley), weighing 500-600 g, were sacrificed. The lungs (15 g) or hearts (4 g) taken therefrom were chopped into small pieces and homogenized with a glass/teflon homogenizer (Glas-Col, Terre Haute, Ind., USA) in 10 volumes of cold medium (pH 6.5) containing 20 mM Bis-Tris, 2 mM benzamidine, 2 mM EDTA, 50 mM sodium chloride, 0.1 mM phenylmethanesulfonyl fluoride (PMSF), and 1 mM dithiothreitol. At 4° C., the homogenate was centrifuged at 170 g for 15 min, and the supernatant thereof was then re-centrifuged at 40,000 g for 30 min. The final supernatant fraction was filtered through the 0.22 μm filter and applied to a Q-sepharose fast flow column (2.2×28 cm), which is pre-washed and pre-equilibrated in homogenization buffer. The column was washed with two bed volumes of homogenate buffer to remove unbound material, where the resin beads therein will bind with proteins, such as PDE proteins. Proteins bound to the Q-sepharose beads were eluted with various concentrations (0.23, 0.34, 0.44, 0.69, and 1.00 M) of NaCl dissolved in homogenate buffer (for each concentration, 40-50 mL elution buffer were applied) at a flow rate of 30 ml/h. Fractions (3 ml each) were collected, and ethylene glycol (EG) was added thereto until a final concentration of 30% (v/v). And then the samples were frozen at −70° C. Under these conditions, the enzyme activity was stable for at least 3 months.
In order to eliminate possible contamination of PDE5 by PDE1, the above-collected fractions with enzyme activity was further purified on a calmodulin-agarose column. The column (1.6 cm×4 cm) was pre-equilibrated by a buffer A, which contains 20 mM Bis-tris, 1 mM dithiothreitol, 2 mM benzamidine, 50 mM NaCl, 3 mMMgCl2, 0.1 mM CaCl2, and 0.1 mM PMSF, pH 6.5. The sample (the mixture of PDE5 and PDE1), being purified by the above-mentioned column, with the CaCl2 concentration thereof adjusted to at least 2 mM previously, was loaded and allowed to be absorbed on the gel for 30 min. Then, the PDE isozymes were eluted by stepwise elution using 20 ml of buffer A with 1 M NaCl followed by 20 ml of buffer A with 1 M NaCl and with 1 mM EGTA. PDE5 was collected first followed by PDE1.
The activities of PDE1-5 in the homogenate were measured with a two-step procedure according to the method of Thompson and Appleman, using cAMP with [^3H]-cAMP or cGMP with [^3 H]-cGMP as substrates. The PDE enzyme prepared (25 μl) with 10 μl inhibitor or the solvents therefor was incubated for 30 min at 37° C. in a total assay buffer, where the final volume of the assay is amounted to 100 μl. In accordance with the features of the PDE isozymes, the assay buffer contains 50 mM Tris/HCl (pH 7.4), 3 mM MgCl2, 1 mM dithiothreitol, and 0.05% BSA, and optionally contains 1 uM cAMP with 0.2 μCi [^3H]-cAMP as a substrate alone or in the presence of 0.1 unit calmodulin with 10 μM CaCl2, or 5 μM cGMP, and 1 μM cGMP with 0.2 μCi [^3H]-cGMP as another substrate alone or in the presence of 0.1 unit calmodulin with 10 μM CaCl2. In assay of enzyme inhibition, the assay mixture contained with the inhibitors at various concentrations of flavonoids in the Table 1 or the selective PDE1-5 inhibitors as reference drugs. For example, the selective PDE1-5 inhibitors are vinpocetin [30], EHNA [31], milrinone, Ro 20-1724 [33], and zaprinast, respectively.
The PDE enzyme and the inhibitors (or their solvent) therefor were mixed and incubated on ice for 30 min previously, and then mixed with the assay buffer. The assay was initiated by transferring the mixture to a water bath at 37° C. Following the other 30 min incubation, the reaction was stopped by transferring the reaction vessel to a bath of boiling water for 3 min. After cooling on ice, 20 μl of the 1 mg/ml of Crotalus atrox venom was added to the reaction mixture, and the mixture was incubated at 37° C. for 10 min. […]

How did the IC50 turn out when `O=c1c(O)c(-c2cc(O)c(O)c(O)c2)oc2cc(O)cc(O)c12` [Myricetin] was run?
Its IC50 is 24.9 ± 3.6 µM.

Which IC50 does the source give for `O=C1CC(c2ccc(O)c(O)c2)Oc2cc(O)cc(O)c21` (stereo not drawn) [Eriodictyol] here?
The IC50 was greater than 100 µM.

Which IC50 does the source give for `COc1cc(O)c2c(=O)c(-c3ccc(O)cc3)coc2c1` [Prunetin] here?
The IC50 was greater than 100 µM.

`O=c1c(-c2ccc(O)cc2)coc2cc(O)cc(O)c12` [Genistein] was tested. Which IC50 did it give?
Its IC50 is 16.8 ± 2.3 µM.

Which IC50 does the source give for `O=c1cc(-c2ccc(O)c(O)c2)oc2cc(O)cc(O)c12` [Luteolin] here?
Its IC50 is 21.5 ± 2.9 µM.

How did the IC50 turn out when `COc1ccc(C2CC(=O)c3c(O)cc(O)cc3O2)cc1O` (stereo not drawn) [Hesperetin] was run?
The IC50 was greater than 100 µM.

For `O=c1c(O)c(-c2ccc(O)c(O)c2)oc2cc(O)cc(O)c12` [Quercetin], which IC50 is on record?
Its IC50 is 27.8 ± 5.7 µM.

Which IC50 does the source give for `COc1ccc(-c2coc3cc(O)cc(O)c3c2=O)cc1` [Biochanin A] here?
Its IC50 is 29.1 ± 0.3 µM.

For `O=c1cc(-c2ccc(O)cc2)oc2cc(O)cc(O)c12` [Apigenin], which IC50 is on record?
Its IC50 is 25.4 ± 3.7 µM.

Which IC50 does the source give for `O=c1c(-c2ccc(O)cc2)coc2cc(O)ccc12` [Daidzein] here?
Its IC50 is greater than 100 µM.

With `O=c1cc(-c2ccccc2)oc2cc(O)cc(O)c12` [Chrysin] as the compound, how does the IC50 read?
The IC50 was greater than 100 µM.

With `O=c1cc(-c2ccc(O)c(O)c2)oc2cc(O[C@@H]3O[C@H](CO)[C@@H](O)[C@H](O)[C@H]3O)cc(O)c12` [Luteolin-7-glucoside] as the compound, how does the IC50 read?
Its IC50 is greater than 100 µM.
